In article PMC4450297, “Screening Active Compounds from Garcinia Species Native to China Reveals Novel Compounds Targeting the STAT/JAK Signaling Pathway” (BioMed Research International, 2015):

Legend:
Assay in all cases: Cell panel screen (CellTiter-Glo)
Format in all cases: cell-based, human
A498 = A498 (listed under Lung), 20 micromolar, 72 hrs
Outline: (§1)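 Tested once at 20 μM (final) over 72 h in cells cultured with 10% FBS. Luciferase/ATP luminescence read-out, background-corrected and normalised to vehicle controls.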

A704 = A704 (Kidney), 20 micromolar, 72 hrs
Outline: as §1

BT-474 = BT-474 (Breast), 20 micromolar, 72 hrs
Outline: as §1

BT-549 = BT-549 (Breast), 20 micromolar, 72 hrs
Outline: as §1

Bel-7402 = Bel-7402 (Liver), 20 micromolar, 72 hrs
Outline: as §1

C3A = C3A (Liver), 20 micromolar, 72 hrs
Outline: as §1

C8166 = C8166 (Leukemia), 20 micromolar, 72 hrs
Outline: as §1

CCF-STTG1 = CCF-STTG1 (Brain), 20 micromolar, 72 hrs
Outline: as §1

CW-2 = CW-2 (Colon), 20 micromolar, 72 hrs
Outline: as §1

ChaGo-K-1 = ChaGo-K-1 (Lung), 20 micromolar, 72 hrs
Outline: as §1

Colo 205 = conditions: Colo 205, 20 micromolar, 72 hrs
Outline: as §1

HCC1395 = HCC1395 (Breast), 20 micromolar, 72 hrs
Outline: as §1

HCC1569 = HCC1569 (Breast), 20 micromolar, 72 hrs
Outline: as §1

HCC1599 = HCC1599 (Breast), 20 micromolar, 72 hrs
Outline: as §1

HCC1937 = HCC1937 (Breast), 20 micromolar, 72 hrs
Outline: as §1

HEC-1-A = HEC-1-A (Uterus), 20 micromolar, 72 hrs
Outline: as §1

HGC-27 = HGC-27 (Stomach), 20 micromolar, 72 hrs
Outline: as §1

HPAF-II = HPAF-II (Pancreas), 20 micromolar, 72 hrs
Outline: as §1

HT-1197 = HT-1197 (Urinary bladder), 20 micromolar, 72 hrs
Outline: as §1

J82 = J82 (Urinary bladder), 20 micromolar, 72 hrs
Outline: as §1

M059J = M059J (Brain), 20 micromolar, 72 hrs
Outline: as §1

MSTO-211-H = MSTO-211-H (Lung), 20 micromolar, 72 hrs
Outline: as §1

NCI-H1623 = NCI-H1623 (Lung), 20 micromolar, 72 hrs
Outline: as §1

NCI-H1694 = NCI-H1694 (Lung), 20 micromolar, 72 hrs
Outline: as §1

NCI-H1770 = NCI-H1770 (Lung), 20 micromolar, 72 hrs
Outline: as §1

NCI-H2347 = NCI-H2347 (Lung), 20 micromolar, 72 hrs
Outline: as §1

NCI-H2405 = NCI-H2405 (Lung), 20 micromolar, 72 hrs
Outline: as §1

NCI-H28 = NCI-H28 (Lung), 20 micromolar, 72 hrs
Outline: as §1

NCI-H524 = NCI-H524 (Lung), 20 micromolar, 72 hrs
Outline: as §1

Panc 03.27 = Panc 03.27 (Pancreas), 20 micromolar, 72 hrs
Outline: as §1

RL95 = RL95 (Uterus), 20 micromolar, 72 hrs
Outline: as §1

SW13 = SW13 (Adrenal gland), 20 micromolar, 72 hrs
Outline: as §1

T47D = T47D (Breast), 20 micromolar, 72 hrs
Outline: as §1

T98G = T98G (Brain), 20 micromolar, 72 hrs
Outline: as §1

TCCSUP = TCCSUP (Urinary bladder), 20 micromolar, 72 hrs
Outline: as §1

ZR-75-30 = ZR-75-30 (Breast), 20 micromolar, 72 hrs
Outline: as §1

Structure (SMILES)	Percent Inhibition (A498) [%]	Percent Inhibition (A704) [%]	Percent Inhibition (BT-474) [%]	Percent Inhibition (BT-549) [%]	Percent Inhibition (Bel-7402) [%]	Percent Inhibition (C3A) [%]	Percent Inhibition (C8166) [%]	Percent Inhibition (CCF-STTG1) [%]	Percent Inhibition (CW-2) [%]	Percent Inhibition (ChaGo-K-1) [%]	Percent Inhibition (Colo 205) [%]	Percent Inhibition (HCC1395) [%]	Percent Inhibition (HCC1569) [%]	Percent Inhibition (HCC1599) [%]	Percent Inhibition (HCC1937) [%]	Percent Inhibition (HEC-1-A) [%]	Percent Inhibition (HGC-27) [%]	Percent Inhibition (HPAF-II) [%]	Percent Inhibition (HT-1197) [%]	Percent Inhibition (J82) [%]	further results
COc1c(CC=C(C)C)c(O)c2c(=O)c3ccc(O)c(O)c3oc2c1CC=C(C)C [gl-9]	86	88	94	96	96	77	96	92	99	97	97	98	93	95	94	85	97	85	97	99	Percent Inhibition (M059J): 92%; Percent Inhibition (MSTO-211-H): 98%; Percent Inhibition (NCI-H1623): 85%; Percent Inhibition (NCI-H1694): 100%; Percent Inhibition (NCI-H1770): 93%; Percent Inhibition (NCI-H2347): 82%; Percent Inhibition (NCI-H2405): 93%; Percent Inhibition (NCI-H28): 86%; Percent Inhibition (NCI-H524): 99%; Percent Inhibition (Panc 03.27): 92%; Percent Inhibition (RL95): 98%; Percent Inhibition (SW13): 99%; Percent Inhibition (T47D): 90%; Percent Inhibition (T98G): 98%; Percent Inhibition (TCCSUP): 96%; Percent Inhibition (ZR-75-30): 99%
O=c1c2cc(O)ccc2oc2cccc(O)c12 [gl-20]	38	13	50	46	-3	58	76	49	47	57	3	74	57	83	62	41	69	19	77	60	Percent Inhibition (M059J): 63%; Percent Inhibition (MSTO-211-H): 59%; Percent Inhibition (NCI-H1623): -13%; Percent Inhibition (NCI-H1694): 86%; Percent Inhibition (NCI-H1770): -4%; Percent Inhibition (NCI-H2347): 48%; Percent Inhibition (NCI-H2405): -5%; Percent Inhibition (NCI-H28): 24%; Percent Inhibition (NCI-H524): 91%; Percent Inhibition (Panc 03.27): 52%; Percent Inhibition (RL95): 67%; Percent Inhibition (SW13): 33%; Percent Inhibition (T47D): 39%; Percent Inhibition (T98G): 73%; Percent Inhibition (TCCSUP): 67%; Percent Inhibition (ZR-75-30): 87%
O=C1CC(c2ccc(O)c(O)c2)Oc2cc(OC3OC(C(=O)O)C(O)C(O)C3O)cc(O)c21 (stereo not drawn) [gly-2]	-7	-14	-18	-14	-14	-5	-12	1	-2	-33	-6	8	-6	-8	-2	-19	0	-1	-8	-6	Percent Inhibition (M059J): -1%; Percent Inhibition (MSTO-211-H): 7%; Percent Inhibition (NCI-H1623): 6%; Percent Inhibition (NCI-H1694): -10%; Percent Inhibition (NCI-H1770): -4%; Percent Inhibition (NCI-H2347): -2%; Percent Inhibition (NCI-H2405): -2%; Percent Inhibition (NCI-H28): -21%; Percent Inhibition (NCI-H524): -15%; Percent Inhibition (Panc 03.27): 2%; Percent Inhibition (RL95): 2%; Percent Inhibition (SW13): -14%; Percent Inhibition (T47D): -2%; Percent Inhibition (T98G): -3%; Percent Inhibition (TCCSUP): -4%; Percent Inhibition (ZR-75-30): 15%
